Reference: patent publication US10118954B2, “Apelin analogues” (University of Ulster, priority 2014, dated 2018)

Assays:
[1] = Degradation of apelin peptides by plasma from fasted normal NIH Swiss mice (rp-HPLC, MALDI-TOF MS); assay type: in vitro ADME
Procedure, shortened: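 Apelin peptides were incubated with plasma from fasted normal NIH Swiss mice for 4 h, and the reaction was stopped with TFA. Products were separated by C-8 rp-HPLC with detection at 214 nm. Peak fractions were identified by MALDI-TOF MS, giving fragment molecular weights and retention times.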

[2] = test system: NIH Swiss mice fed a high-fat diet for 150 days; assay: Acute and delayed i.p. glucose tolerance test, blood glucose and plasma insulin; assay type: in vivo; settings: fatty acid derived agonists
Procedure, shortened: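 Diet-induced obese-diabetic mice (high-fat diet 150 days, 18 h fasted) received i.p. glucose (18 mmol/kg) alone or with apelin analogues (25 nmol/kg), or analogues given 2, 8 or 16 h beforehand. Tail blood glucose and plasma insulin sampled at 0, 15, 30, 60, 105 min; n=8, mean±SEM.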

[3] = NIH Swiss, mouse, plasma, pH 7.4
[4] = 16 h delayed i.p. glucose tolerance test, 25 nmol/kg
[5] = acute i.p. glucose tolerance test, 25 nmol/kg

## CCCCCCCCCCCCCCCC(=O)N[C@@H](CCC(=O)NCCCC[C@H](NC(=O)[C@H](Cc1c[nH]cn1)NC(=O)[C@H](CO)NC(=O)[C@H](CC(C)C)NC(=O)[C@H](CCCNC(=N)N)NC(=O)[C@@H]1CCCN1C(=O)[C@H](CCCNC(=N)N)NC(=O)[C@@H]1CCC(=O)N1)C(=O)NCC(=O)N1CCC[C@H]1C(=O)N[C@@H](CCSC)C(=O)N1CCC[C@H]1C(=O)N[C@@H](Cc1ccccc1)C(N)=O)C(=O)O [pGlu(Lys^8GluPAL)apelin-13-amide]
[1]
  Rank order of stability: =1
[1]; NIH Swiss, mouse, plasma, 263 µg/mL, pH 7.4
  Half-life (t1/2): >24 h
[1]; [3]
  half-life at 263 µg/mL: > 24 h
  remaining at 4 h, 263 µg/mL: 100%
[2]; 16 h delay
  Rank order on basis of anti-hyperglycaemic efficacy: 1
[2]; [4]
  Blood glucose as percent of glucose-alone control (lower = stronger glucose lowering): 57% (**)
  Insulin secretion, where glucose alone = 100%: 150% (***)
[2]; acute
  Rank order on basis of anti-hyperglycaemic efficacy: 1
[2]; [5]
  Glucose lowering, where glucose alone = 100%: 79%
  Insulin secretion, where glucose alone = 100%: 119% (*)
